Measurements: US8114594B2, “Crude biological derivatives competent for nucleic acid detection” (Applied Biosysyems, LLC, priority 2004, dated 2012)

test system: tissue plasminogen activator (t-PA); assay: Monitoring drug treatment: t-PA mRNA by one step real-time RT-PCR from HeLa cell lysate; assay type: cell-based, human; conditions: lysate 40 cells/μl, PMA 1 nM, 24 hours
Method: HeLa cells were seeded DME media with 10% FBS in each of three wells in a 12-well tissue culture plate (Nalge Nunc International, Cat. #150628) at 125,000 cells/well. After an overnight incubation, phorbol myristate acetate (PMA) was added to final concentrations of 10, 1 and 0 nM in the growth medium. The cells were incubated at 37° C. for 24 hours. The medium was removed and the cells washed with PBS. The cells were incubated with 0.05% trypsin in 0.53 mM EDTA for 10 minutes at 37° C. to detach the cells. Cells were counted and concentration was determined. Cells were centrifuged at 800×g for 5 minutes. The medium was removed and the cells were washed once with PBS. Each cell pellet was suspended in PBS to obtain a stock solution of 10000 cells/μl. A five-fold serial dilution of the stock solution with PBS was carried out to give 10000, 2000 and 400 cells/0.10 μl of each dilution was added to 90 μl of Buffer at room temperature such that the final cell concentrations in the lysate were 1000, 200 and 40 cells/μl. The samples were gently shaken at room temperature (˜21° C.) for 1 to 2 min. As in EXAMPLE 1, cell lysate of 30% of the final reaction volume was added to a one step real-time RT-PCR reaction with primers and TaqMan probe for tissue plasminogen activator (t-PA) and 18S rRNA (EXAMPLE 8). The t-PA primer and probe sequences were as follows: Forward primer, 5′-[…]-3′ (SEQ ID NO. 34); Reverse primer, 5′-[…]-3′ (SEQ ID NO. 35); TaqMan Probe: 5′-(FAM)-[…]-(TAMRA)-3′ (SEQ ID NO. 36).

With `CCCCCCCCCCCCCC(=O)O[C@@H]1[C@@H](C)[C@@]2(O)[C@@H](C=C(CO)C[C@]3(O)C(=O)C(C)=C[C@@H]23)[C@@H]2C(C)(C)[C@]12OC(C)=O` [PMA, phorbol myristate acetate] the “t-PA (fold increase compared to 0 nM PMA)” value was 16 fold.

same assay, conditions: lysate 40 cells/μl, PMA 10 nM, 24 hours

In the case of `CCCCCCCCCCCCCC(=O)O[C@@H]1[C@@H](C)[C@@]2(O)[C@@H](C=C(CO)C[C@]3(O)C(=O)C(C)=C[C@@H]23)[C@@H]2C(C)(C)[C@]12OC(C)=O` [PMA, phorbol myristate acetate], the “t-PA (fold increase compared to 0 nM PMA)” value is reported as 147 fold.

same assay, conditions: lysate 200 cells/μl, PMA 1 nM, 24 hours

With `CCCCCCCCCCCCCC(=O)O[C@@H]1[C@@H](C)[C@@]2(O)[C@@H](C=C(CO)C[C@]3(O)C(=O)C(C)=C[C@@H]23)[C@@H]2C(C)(C)[C@]12OC(C)=O` [PMA, phorbol myristate acetate] the “t-PA (fold increase compared to 0 nM PMA)” value was 9 fold.

same assay, conditions: lysate 200 cells/μl, PMA 10 nM, 24 hours

With `CCCCCCCCCCCCCC(=O)O[C@@H]1[C@@H](C)[C@@]2(O)[C@@H](C=C(CO)C[C@]3(O)C(=O)C(C)=C[C@@H]23)[C@@H]2C(C)(C)[C@]12OC(C)=O` [PMA, phorbol myristate acetate] the “t-PA (fold increase compared to 0 nM PMA)” value was 62 fold.

same assay, conditions: lysate 1000 cells/μl, PMA 1 nM, 24 hours

For `CCCCCCCCCCCCCC(=O)O[C@@H]1[C@@H](C)[C@@]2(O)[C@@H](C=C(CO)C[C@]3(O)C(=O)C(C)=C[C@@H]23)[C@@H]2C(C)(C)[C@]12OC(C)=O` [PMA, phorbol myristate acetate], the “t-PA (fold increase compared to 0 nM PMA)” value was 8 fold.

same assay, conditions: lysate 1000 cells/μl, PMA 10 nM, 24 hours

In the case of `CCCCCCCCCCCCCC(=O)O[C@@H]1[C@@H](C)[C@@]2(O)[C@@H](C=C(CO)C[C@]3(O)C(=O)C(C)=C[C@@H]23)[C@@H]2C(C)(C)[C@]12OC(C)=O` [PMA, phorbol myristate acetate], the “t-PA (fold increase compared to 0 nM PMA)” value is reported as 39 fold.

test system: not given; assay: not given; conditions: cited from earlier work

In order of rising pKa:
1. O=C(O)C#CCl [chloropropynoic acid]  1.85
2. CCCC(N)C(=O)O (stereo not drawn) [2-aminopentanoic acid]  2.3
3. CC[C@H](C)[C@H](N)C(=O)O [isoleucine]  2.3
4. CCC(C)C(N)C(=O)O (stereo not drawn) [2-amino-3-methylpentanoic acid]  2.3
5. CC(C)(N)C(=O)O [2-amino-2-methylpropionic acid]  2.4
6. CC(C)(C#N)C(=O)O [2-cyano-2-methylpropionic acid]  2.4
7. CC(C)C(C(=O)O)C(=O)O [isopropylmalonic acid]  2.4
8. Nc1ccccc1S(=O)(=O)O [2-aminobenzenesulfonic acid]  2.5
9. N#CCC(=O)O [cyanoacetic acid]  2.5
10. O=C(O)c1ccco1 [2-furancarboxylic acid]  3.2
11. Nc1ccc(S(=O)(=O)O)cc1 [4-aminobenzenesulfonic acid]  3.2
12. O=C(O)c1c(O)ccc2ccccc12 [2-hydroxy-1-naphthoic acid]  3.3
13. Cc1cc(C)c(C(=O)O)c(C)c1 [2,4,6-trimethylbenzoic acid]  3.4
14. O=C(O)c1ccc([N+](=O)[O-])cc1 [4-nitrobenzoic acid]  3.4
15. Cc1cc(C)c(C)c(C(=O)O)c1C [2,3,5,6-tetramethylbenzoic acid]  3.5
16. CCC(=O)NCC(=O)O [N-propionylglycine]  3.7
17. Nc1cccc(S(=O)(=O)O)c1 [3-aminobenzenesulfonic acid]  3.7
18. CC(=O)NCC(=O)O [N-acetylglycine]  3.7
19. CC(=O)N[C@@H](C)C(=O)O [N-acetylalanine]  3.7
20. O=C(O)c1cccc(Br)c1 [3-bromobenzoic acid]  3.8
21. C[C@H](NC(N)=O)C(=O)O [N-carbamoylalanine]  3.9
22. CC(C)(C)c1cccc(C(=O)O)c1 [3-tert-butylbenzoic acid]  4.2
23. CC(=O)NCCC(=O)O [β-acetylaminopropionic acid]  4.4
24. CCC(CC)C(=O)O [2-ethylbutyric acid]  4.8
